Blank lines part the entries; values can stand above or below the compound they belong to.
How the values were obtained:
[1] = biological target: T1, Adrenergic receptor alpha-1 (Homo sapiens, UniProt P35348+P25100+P35368)
T1 sequence (P35348 whole entry): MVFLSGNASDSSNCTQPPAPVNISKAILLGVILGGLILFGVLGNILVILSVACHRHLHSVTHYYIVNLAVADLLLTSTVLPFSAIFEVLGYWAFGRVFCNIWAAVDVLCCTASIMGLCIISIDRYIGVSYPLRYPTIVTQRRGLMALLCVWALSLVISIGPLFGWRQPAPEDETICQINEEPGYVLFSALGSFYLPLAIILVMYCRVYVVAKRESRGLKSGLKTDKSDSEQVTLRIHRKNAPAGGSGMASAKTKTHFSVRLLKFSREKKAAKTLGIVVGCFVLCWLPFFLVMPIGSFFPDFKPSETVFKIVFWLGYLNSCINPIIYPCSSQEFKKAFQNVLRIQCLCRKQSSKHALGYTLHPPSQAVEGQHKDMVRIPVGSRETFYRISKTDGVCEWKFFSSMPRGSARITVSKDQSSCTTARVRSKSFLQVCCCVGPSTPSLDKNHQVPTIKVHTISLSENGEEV
T1 sequence (P25100 whole entry): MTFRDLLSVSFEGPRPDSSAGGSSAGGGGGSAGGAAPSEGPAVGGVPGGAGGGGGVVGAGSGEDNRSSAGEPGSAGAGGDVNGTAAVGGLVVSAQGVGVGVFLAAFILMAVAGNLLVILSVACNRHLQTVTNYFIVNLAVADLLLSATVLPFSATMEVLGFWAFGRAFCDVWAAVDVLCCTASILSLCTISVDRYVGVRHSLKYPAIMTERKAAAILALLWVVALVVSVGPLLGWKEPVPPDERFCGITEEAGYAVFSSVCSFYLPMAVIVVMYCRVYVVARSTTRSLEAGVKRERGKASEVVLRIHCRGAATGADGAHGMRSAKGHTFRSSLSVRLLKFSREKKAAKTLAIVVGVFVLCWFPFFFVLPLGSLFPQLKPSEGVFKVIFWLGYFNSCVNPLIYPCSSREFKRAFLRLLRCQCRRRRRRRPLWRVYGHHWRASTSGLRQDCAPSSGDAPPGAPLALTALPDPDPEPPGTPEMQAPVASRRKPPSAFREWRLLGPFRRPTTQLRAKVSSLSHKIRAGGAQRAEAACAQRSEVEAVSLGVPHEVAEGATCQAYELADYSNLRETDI
T1 sequence (P35368 whole entry): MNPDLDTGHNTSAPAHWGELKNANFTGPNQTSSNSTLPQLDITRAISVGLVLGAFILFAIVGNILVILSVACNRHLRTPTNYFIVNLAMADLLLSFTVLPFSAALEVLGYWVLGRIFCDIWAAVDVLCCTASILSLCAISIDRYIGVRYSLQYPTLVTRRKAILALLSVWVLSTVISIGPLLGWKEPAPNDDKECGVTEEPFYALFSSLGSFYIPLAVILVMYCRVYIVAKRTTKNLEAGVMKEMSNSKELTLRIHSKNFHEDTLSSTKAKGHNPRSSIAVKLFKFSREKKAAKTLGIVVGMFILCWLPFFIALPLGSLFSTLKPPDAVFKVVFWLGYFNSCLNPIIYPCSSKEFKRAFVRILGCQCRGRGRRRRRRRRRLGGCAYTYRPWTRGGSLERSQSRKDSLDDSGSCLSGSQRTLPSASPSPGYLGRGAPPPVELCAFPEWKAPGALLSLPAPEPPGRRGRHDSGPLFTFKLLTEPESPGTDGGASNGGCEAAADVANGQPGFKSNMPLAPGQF
Description: Binding affinity towards human alpha-1 adrenergic receptor

[2] = biological target: Muscarinic acetylcholine receptor; type: protein assay
Description: (§1) Binding affinity towards human muscarinic receptor

[3] = biological target: T2, Endothelin receptor type B (Homo sapiens, UniProt P24530)
T2 sequence (P24530 whole entry): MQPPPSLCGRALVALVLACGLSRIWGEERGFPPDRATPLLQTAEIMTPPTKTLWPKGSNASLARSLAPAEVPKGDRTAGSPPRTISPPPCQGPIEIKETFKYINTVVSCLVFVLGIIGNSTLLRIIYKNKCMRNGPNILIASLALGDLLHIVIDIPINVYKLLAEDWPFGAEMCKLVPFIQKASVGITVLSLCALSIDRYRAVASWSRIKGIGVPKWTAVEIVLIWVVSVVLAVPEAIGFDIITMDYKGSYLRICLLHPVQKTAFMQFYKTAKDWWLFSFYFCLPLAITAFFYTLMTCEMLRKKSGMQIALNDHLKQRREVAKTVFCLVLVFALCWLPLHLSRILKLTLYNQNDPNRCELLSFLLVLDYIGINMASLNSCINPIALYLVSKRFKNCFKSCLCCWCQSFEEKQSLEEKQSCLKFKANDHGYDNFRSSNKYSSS

[4] = biological target: T3, Endothelin-1 receptor (Homo sapiens, UniProt P25101)
T3 sequence (P25101 whole entry): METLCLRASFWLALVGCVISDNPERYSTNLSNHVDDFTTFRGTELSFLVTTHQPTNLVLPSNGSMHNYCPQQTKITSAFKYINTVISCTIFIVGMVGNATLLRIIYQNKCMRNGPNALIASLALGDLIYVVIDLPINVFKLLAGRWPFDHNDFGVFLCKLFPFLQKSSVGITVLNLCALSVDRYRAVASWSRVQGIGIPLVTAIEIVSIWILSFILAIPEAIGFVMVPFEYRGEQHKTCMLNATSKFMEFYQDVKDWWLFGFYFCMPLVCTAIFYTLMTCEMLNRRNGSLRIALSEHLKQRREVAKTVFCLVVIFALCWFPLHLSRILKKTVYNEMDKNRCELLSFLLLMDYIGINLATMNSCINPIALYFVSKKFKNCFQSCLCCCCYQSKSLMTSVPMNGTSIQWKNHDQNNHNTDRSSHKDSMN
Description: Binding affinity against human Endothelin A receptor

[5] = species: Homo sapiens; experiment: cells; type: functional, organism-based
Description: Antiviral activity against human respiratory syncytial virus (RSV)

[6] = biological target: T4, Muscarinic acetylcholine receptor M4 (Homo sapiens, UniProt P08173)
T4 sequence (P08173 whole entry): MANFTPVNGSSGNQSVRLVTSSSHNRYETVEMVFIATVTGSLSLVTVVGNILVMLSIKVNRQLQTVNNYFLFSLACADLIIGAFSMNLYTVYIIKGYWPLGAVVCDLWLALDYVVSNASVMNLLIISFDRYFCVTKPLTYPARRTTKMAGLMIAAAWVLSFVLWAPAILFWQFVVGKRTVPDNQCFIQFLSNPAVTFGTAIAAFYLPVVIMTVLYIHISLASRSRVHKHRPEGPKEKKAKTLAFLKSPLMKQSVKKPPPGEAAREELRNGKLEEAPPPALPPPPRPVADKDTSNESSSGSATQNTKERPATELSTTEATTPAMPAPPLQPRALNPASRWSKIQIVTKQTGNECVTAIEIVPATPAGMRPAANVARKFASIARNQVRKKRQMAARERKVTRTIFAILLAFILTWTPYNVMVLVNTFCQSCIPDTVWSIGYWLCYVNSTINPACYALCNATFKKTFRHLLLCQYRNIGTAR
Description: as §1

[7] = biological target: T3, Endothelin-1 receptor; remark: listed apart in the source
Description: (§2) Inhibitory concentration against Endothelin A receptor

[8] = species: Rattus norvegicus; type: functional
Description: Dose required for oral activity in rats

[9] = in vivo; conditions: rat
[10] = biological target: T3, Endothelin-1 receptor; remark: listed apart in the source
Description: as §2

[11] = biological target: T5, Muscarinic acetylcholine receptor M1 (Homo sapiens, UniProt P11229)
T5 sequence (P11229 whole entry): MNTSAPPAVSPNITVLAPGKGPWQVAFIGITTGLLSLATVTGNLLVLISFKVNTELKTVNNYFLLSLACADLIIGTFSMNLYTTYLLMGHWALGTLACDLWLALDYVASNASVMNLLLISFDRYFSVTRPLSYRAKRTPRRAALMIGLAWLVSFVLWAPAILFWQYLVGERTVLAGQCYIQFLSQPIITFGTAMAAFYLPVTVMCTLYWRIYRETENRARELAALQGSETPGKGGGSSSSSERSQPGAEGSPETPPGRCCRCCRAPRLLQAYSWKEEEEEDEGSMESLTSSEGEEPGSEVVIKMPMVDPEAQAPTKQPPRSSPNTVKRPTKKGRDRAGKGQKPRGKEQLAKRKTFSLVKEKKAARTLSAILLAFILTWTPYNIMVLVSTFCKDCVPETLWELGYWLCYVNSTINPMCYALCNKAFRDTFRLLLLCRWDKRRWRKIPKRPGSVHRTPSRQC
Description: Binding affinity towards muscarinic M1 receptor

[12] = biological target: T6, Potassium voltage-gated channel subfamily KQT member 1 (Cavia porcellus, UniProt O70344); type: cell-based, Oocyte
T6 sequence (O70344 whole entry): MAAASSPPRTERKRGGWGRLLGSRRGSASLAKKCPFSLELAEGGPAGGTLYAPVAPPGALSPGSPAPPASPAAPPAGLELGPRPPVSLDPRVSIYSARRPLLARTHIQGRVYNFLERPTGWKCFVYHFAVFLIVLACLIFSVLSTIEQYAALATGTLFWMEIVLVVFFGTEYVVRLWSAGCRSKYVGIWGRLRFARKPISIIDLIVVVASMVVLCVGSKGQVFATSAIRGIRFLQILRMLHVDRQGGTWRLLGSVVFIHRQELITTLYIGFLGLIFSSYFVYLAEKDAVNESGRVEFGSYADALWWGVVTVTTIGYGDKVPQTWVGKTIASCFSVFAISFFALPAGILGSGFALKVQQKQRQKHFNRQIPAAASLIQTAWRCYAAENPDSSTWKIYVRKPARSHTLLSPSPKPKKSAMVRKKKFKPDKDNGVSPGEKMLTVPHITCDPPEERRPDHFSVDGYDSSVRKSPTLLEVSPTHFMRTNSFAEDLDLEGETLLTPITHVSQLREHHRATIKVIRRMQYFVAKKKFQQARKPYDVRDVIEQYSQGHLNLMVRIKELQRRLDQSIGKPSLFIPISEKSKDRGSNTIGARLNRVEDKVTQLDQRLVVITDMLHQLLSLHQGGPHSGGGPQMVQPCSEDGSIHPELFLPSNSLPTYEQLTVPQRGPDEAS
Description: (§3) Inhibition of guinea pig Iks potassium channel expressed in Xenopus oocytes

[13] = biological target: D(3) dopamine receptor (Homo sapiens, UniProt P35462)
Description: Binding affinity against Dopamine receptor D3

[14] = biological target: T7, Acetylcholinesterase (Electrophorus electricus, UniProt O42275); type: functional
Description: (§4) Inhibitory concentration towards acetylcholinesterase in electric eel

[15] = biological target: D(4) dopamine receptor (Homo sapiens, UniProt P21917)
Description: Binding affinity against human Dopamine receptor D4 versus hD2, hD3 receptor

[16] = biological target: T7, Acetylcholinesterase
Description: as §4

[17] = biological target: T6, Potassium voltage-gated channel subfamily KQT member 1; type: functional, cell-based, Oocyte
Description: as §3

T7 sequence (O42275 whole entry): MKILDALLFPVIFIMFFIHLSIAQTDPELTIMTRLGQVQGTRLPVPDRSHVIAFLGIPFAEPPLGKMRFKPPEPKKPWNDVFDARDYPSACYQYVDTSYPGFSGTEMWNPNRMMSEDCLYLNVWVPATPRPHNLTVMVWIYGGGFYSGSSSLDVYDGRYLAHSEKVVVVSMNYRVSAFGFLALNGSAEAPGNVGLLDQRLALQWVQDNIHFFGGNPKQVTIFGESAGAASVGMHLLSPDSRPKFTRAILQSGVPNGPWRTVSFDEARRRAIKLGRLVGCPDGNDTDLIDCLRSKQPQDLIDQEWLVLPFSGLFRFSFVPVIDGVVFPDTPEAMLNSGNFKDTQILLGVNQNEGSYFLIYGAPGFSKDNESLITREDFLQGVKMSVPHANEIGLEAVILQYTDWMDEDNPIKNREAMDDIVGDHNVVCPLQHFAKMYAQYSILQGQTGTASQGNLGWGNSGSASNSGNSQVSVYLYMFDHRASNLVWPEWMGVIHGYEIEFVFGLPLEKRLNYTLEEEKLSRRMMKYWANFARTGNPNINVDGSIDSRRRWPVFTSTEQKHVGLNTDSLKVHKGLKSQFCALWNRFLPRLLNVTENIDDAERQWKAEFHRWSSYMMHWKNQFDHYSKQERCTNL
Chain of D(4) dopamine receptor (P21917 whole entry, looked up): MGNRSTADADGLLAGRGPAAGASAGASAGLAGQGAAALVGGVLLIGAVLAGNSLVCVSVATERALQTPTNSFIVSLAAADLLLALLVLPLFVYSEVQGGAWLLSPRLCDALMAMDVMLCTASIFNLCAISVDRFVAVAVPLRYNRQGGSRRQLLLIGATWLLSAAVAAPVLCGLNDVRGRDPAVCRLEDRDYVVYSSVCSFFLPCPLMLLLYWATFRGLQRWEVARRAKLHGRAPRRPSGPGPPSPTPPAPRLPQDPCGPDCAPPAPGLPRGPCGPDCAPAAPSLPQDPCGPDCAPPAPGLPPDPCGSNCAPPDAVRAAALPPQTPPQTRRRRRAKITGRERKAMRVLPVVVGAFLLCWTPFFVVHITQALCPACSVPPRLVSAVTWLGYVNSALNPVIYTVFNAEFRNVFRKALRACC
Chain of D(3) dopamine receptor (P35462 whole entry): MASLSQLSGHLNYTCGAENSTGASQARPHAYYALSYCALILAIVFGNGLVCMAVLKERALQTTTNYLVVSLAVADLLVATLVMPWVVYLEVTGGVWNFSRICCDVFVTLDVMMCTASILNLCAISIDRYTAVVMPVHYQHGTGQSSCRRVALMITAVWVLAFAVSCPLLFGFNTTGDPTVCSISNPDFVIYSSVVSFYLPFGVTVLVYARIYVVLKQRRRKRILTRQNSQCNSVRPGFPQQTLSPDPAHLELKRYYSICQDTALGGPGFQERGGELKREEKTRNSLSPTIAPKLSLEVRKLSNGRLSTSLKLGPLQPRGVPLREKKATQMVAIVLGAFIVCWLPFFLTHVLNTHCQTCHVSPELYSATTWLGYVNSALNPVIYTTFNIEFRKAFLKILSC

Ki [6]: 550 nM
Compound: CN(C)CCOC1=Cc2ccccc2Sc2ccc(Cl)cc21 [ZOTEPINE]

Ki [1]: 12 nM | Ki [2]: > 5 µM
Compound: O=C1Cc2cc(CCN3CCN(c4nsc5ccccc45)CC3)c(Cl)cc2N1 [ZIPRASIDONE]

IC50 [12]: 5 µM
Compound: CCS(=O)(=O)N(C)C1c2cc(C#N)ccc2OC(C)(C)[C@@H]1O (single isomer, unassigned)

Ki [13]: 0.11 nM
Compound: CCCCN1CCCC1CNC(=O)c1cc(C#N)c2ccccc2c1OC (configuration not stated) [NAFADOTRIDE]

Ki [15]: 5.62 nM
Compound: COc1cccc(CN2CC[C@H](NC(=O)c3cc(Cl)c(NC(=O)C4CC4)cc3OC)C2)c1

IC50 [17]: 6.2 µM | IC50 [12]: 39 µM
Compound: CCS(=O)(=O)N(C)C1c2cc(C#N)ccc2OC(C)(C)[C@H]1O (single isomer, unassigned)

Continued, compound first:

Compound: O=C1NCCN1CCN1CCC(c2cn(-c3ccc(F)cc3)c3ccc(Cl)cc23)CC1 [SERTINDOLE]
Ki [1]: 1.8 nM | Ki [2]: > 5 µM

Compound: COc1cc(OC)nc(CC(C(=O)O)C(C)(Oc2ccc(C(C)C)cc2)c2ccccc2)n1 (configuration not stated)
Ki [3]: 3 µM | Ki [4]: 250 nM

Compound: NC(=O)CCN(CCC(N)=O)S(=O)(=O)c1cccc(Nc2nc(Nc3cccc(S(=O)(=O)N(CCC(N)=O)CCC(N)=O)c3)nc(Nc3ccc(/C=C/c4ccc(Nc5nc(Nc6cccc(S(=O)(=O)N(CCC(N)=O)CCC(N)=O)c6)nc(Nc6cccc(S(=O)(=O)N(CCC(N)=O)CCC(N)=O)c6)n5)cc4S(=O)(=O)O)c(S(=O)(=O)O)c3)n2)c1
IC50 [5]: 150 nM

Compound: COc1cc(OC)nc(CC(C(=O)O)C(C)(Oc2ccc(SC)cc2)c2ccccc2)n1 (configuration not stated)
Ki [3]: 4.7 µM | Ki [4]: 160 nM

Compound: Nc1ccc(S(=O)(=O)Nc2nccs2)cc1 [SULFATHIAZOLE]
IC50 [7]: 69 µM

Compound: Cc1noc(NS(=O)(=O)c2ccccc2-c2ccc(-c3ncco3)cc2CNC(=O)CC(C)(C)C)c1C
Dose [8]: 3 µM/kg | bioavailability [9]: 100% | Ki [10]: 0.01 nM

Compound: NC(=O)CCN(CCC(N)=O)S(=O)(=O)c1cccc(Nc2nc(Nc3cccc(S(=O)(=O)N(CCC(N)=O)CCC(N)=O)c3)nc(Nc3ccc(-c4ccc(Nc5nc(Nc6cccc(S(=O)(=O)N(CCC(N)=O)CCC(N)=O)c6)nc(Nc6cccc(S(=O)(=O)N(CCC(N)=O)CCC(N)=O)c6)n5)cc4S(=O)(=O)O)c(S(=O)(=O)O)c3)n2)c1
IC50 [5]: 50 nM

Compound: Cc1cc(NCCN2C3CCCC2CC3)nnc1-c1ccccc1O
Ki [11]: 3 nM

Compound: c1ccc(-c2ccc(NCCN3CCCCC3)nn2)cc1
IC50 [14]: 13 µM

Compound: Cc1cc(-c2ccccc2)nnc1NCCN1CCOCC1 [MINAPRINE]
Ki [11]: 17000 nM | IC50 [16]: 600 µM

Compound: c1ccc(-c2ccc(NCCCCN3CCc4ccccc4C3)nn2)cc1
IC50 [14]: 1.9 µM

Compound: Cc1cc(NCCN2CCOCC2)nnc1-c1ccccc1
Ki [11]: 550 nM

Compound: Cc1cc(NCCN2C3CCCC2CC3)nnc1-c1ccccc1
Ki [11]: 50 nM

— ChEMBL document CHEMBL1149193, “Selective optimization of side activities: another way for drug discovery” (J Med Chem, 2004)
